The source made the active and inactive calls. The rule behind the calls is not given here.
Legend:
[1] = system: MDA-MB-231; assay: Antimigratory activity against human MDA-MB-231 cells assessed as suppression of migration measured after 24 hrs by Wound healing assay; type: functional, cell-based
[2] = Toxicity in BALB/c mouse xenografted with MDA-MB-231 cells assessed as LDH level in blood at 300 mg/kg, po; type: organism-based; conditions: in vivo
[3] = Toxicity in BALB/c mouse xenografted with MDA-MB-231 cells assessed as ALT level in blood at 300 mg/kg, po; type: organism-based; conditions: in vivo
[4] = system: MDA-MB-436; assay: Induction of apoptosis in human MDA-MB-436 cells assessed as downregulation of Bcl2 expression up to 10 uM incubated for 24 hrs by Western blotting analysis; type: functional, cell-based; conditions: dose microM <=10, time 24.0 hrs
[5] = system: MDA-MB-436; assay: Anticancer activity against human MDA-MB-436 cells assessed as cell viability incubated for 48 hrs by MTT assay; conditions: MDA-MB-436, 48 h
[6] = biological target: Misshapen-like kinase 1 (Homo sapiens, UniProt Q8N4C8); assay: Inhibition of human MINK assessed as residual kinase activity at 1 uM relative to control
[7] = biological target: Maternal embryonic leucine zipper kinase (Homo sapiens, UniProt Q14680); assay: Inhibition of human MELK assessed as residual kinase activity at 1 uM relative to control
[8] = biological target: T1, Vascular endothelial growth factor receptor 3 (Homo sapiens, UniProt P35916); assay: Inhibition of human FLT4/VEGFR3
[9] = biological target: Vascular endothelial growth factor receptor 2 (Homo sapiens, UniProt P35968); assay: Inhibition of human KDR/VEGFR2
[10] = Antiproliferative activity against VEGF-C-induced human dermal lymphatic endothelial cells assessed as cell viability incubated for 48 hrs by CCK-8 assay; type: functional, tissue-based; conditions: HDLEC
[11] = Antiproliferative activity against VEGF-D-induced human dermal lymphatic endothelial cells assessed as cell viability incubated for 48 hrs by CCK-8 assay; type: functional, tissue-based; conditions: HDLEC
[12] = system: HDLEC; assay: Inhibition of cell migration in VEGF-C-induced human dermal lymphatic endothelial cells assessed as cell migration at 100 nM incubated for 24 hrs by inverted microscopy based by scratch wound healing assay; type: functional, tissue-based
[13] = biological target: T1, Vascular endothelial growth factor receptor 3; assay: Inhibition of VEGFR3 in human dermal lymphatic endothelial cells assessed as inhibition of STAT5 phosphorylation incubated for 24 hrs by Western blot analysis; conditions: HDLEC
[14] = biological target: T1, Vascular endothelial growth factor receptor 3; assay: Inhibition of VEGFR3 in human dermal lymphatic endothelial cells assessed as inhibition of AKT phosphorylation incubated for 24 hrs by Western blot analysis; type: tissue-based; conditions: HDLEC
[15] = system: MDA-MB-436; assay: Inhibition of colony formation in human MDA-MB-436 cells at 2.5 uM incubated for 24 hrs by clonogenic assay; type: functional
[16] = system: MDA-MB-436; assay: Induction of apoptosis in human MDA-MB-436 cells assessed as apoptotic cells at 2.5 uM incubated for 48 hrs by flow cytometry; type: functional
[17] = system: MDA-MB-436; assay: Induction of apoptosis in human MDA-MB-436 cells assessed as apoptotic cells at 5 uM incubated for 48 hrs by flow cytometry; type: functional
[18] = system: MDA-MB-231; assay: Induction of apoptosis in human MDA-MB-231 cells assessed as upregulation of Bax expression up to 10 uM incubated for 24 hrs by Western blotting analysis; type: functional, cell-based; conditions: dose microM <=10, time 24.0 hrs
[19] = system: MDA-MB-231; assay: Induction of apoptosis in human MDA-MB-231 cells assessed as cleaved caspase 3 up to 10 uM incubated for 24 hrs by Western blotting analysis; type: functional, cell-based; conditions: dose microM <=10, time 24.0 hrs
[20] = system: MDA-MB-436; assay: Induction of apoptosis in human MDA-MB-436 cells assessed as cleaved caspase 3 up to 10 uM incubated for 24 hrs by Western blotting analysis; type: functional, cell-based; conditions: dose microM <=10, time 24.0 hrs
[21] = system: MDA-MB-231; assay: Antimigratory activity against human MDA-MB-231 cells assessed as reduction in cell migration incubated for 12 hrs by transwell assay; type: functional, cell-based
[22] = system: MDA-MB-436; assay: Downregulation of MMP2 protein expression in human MDA-MB-436 cells up to 10 uM incubated for 24 hrs by Western blot analysis; type: functional, cell-based; conditions: dose microM <=10, time 24.0 hrs
[23] = biological target: T1, Vascular endothelial growth factor receptor 3; assay: Inhibition of VEGFR3 phosphorylation in human MDA-MB-231 cells at 2.5 uM incubated for 24 hrs by Western blot analysis; type: cell-based
[24] = biological target: T1, Vascular endothelial growth factor receptor 3; assay: Inhibition of VEGFR3 in human MDA-MB-231 cells assessed as inhibition of AKT phosphorylation at 2.5 uM incubated for 24 hrs by Western blot analysis; type: cell-based
[25] = biological target: T1, Vascular endothelial growth factor receptor 3; assay: Inhibition of VEGFR3 phosphorylation in human MDA-MB-436 cells at 2.5 uM incubated for 24 hrs by Western blot analysis; type: cell-based
[26] = biological target: T1, Vascular endothelial growth factor receptor 3; assay: Inhibition of VEGFR3 in human MDA-MB-436 cells assessed as inhibition of STAT5 phosphorylation at 2.5 uM incubated for 24 hrs by Western blot analysis; type: cell-based
[27] = biological target: T1, Vascular endothelial growth factor receptor 3; assay: Inhibition of VEGFR3 in human MDA-MB-436 cells assessed as inhibition of AKT phosphorylation at 2.5 uM incubated for 24 hrs by Western blot analysis; type: cell-based
[28] = Half life in Sprague-Dawley rat at 1 mg/kg, iv by LC-MS analysis; type: ADME, organism-based; conditions: in vivo
[29] = Cmax in Sprague-Dawley rat at 10 mg/kg, po by LC-MS analysis; type: ADME, organism-based; design: route oral, dose 10 mg/kg; conditions: in vivo
[30] = AUC (0 to t) in Sprague-Dawley rat at 10 mg/kg, po by LC-MS analysis; type: ADME, organism-based; design: dose 10 mg/kg; conditions: in vivo
[31] = AUC (0 to infinity) in Sprague-Dawley rat at 1 mg/kg, iv by LC-MS analysis; type: ADME, organism-based; design: time infinity, route intravenous, dose 1 mg/kg; conditions: in vivo
[32] = Apparent volume of distribution in Sprague-Dawley rat at 1 mg/kg, iv by LC-MS analysis; type: ADME, organism-based; conditions: in vivo, read-out: Vz
[33] = Clearance in Sprague-Dawley rat at 1 mg/kg, iv by LC-MS analysis; type: ADME, organism-based; conditions: in vivo
[34] = Bioavailability in Sprague-Dawley rat at 1 mg/kg, iv by LC-MS analysis; type: ADME, organism-based; conditions: in vivo
[35] = Toxicity in BALB/c mouse xenografted with MDA-MB-231 cells assessed as creatinine level in blood at 300 mg/kg, po; type: organism-based; conditions: in vivo
[36] = Toxicity in BALB/c mouse xenografted with MDA-MB-231 cells assessed as uric acid level in blood at 300 mg/kg, po; type: organism-based; conditions: in vivo
[37] = Toxicity in BALB/c mouse xenografted with MDA-MB-231 cells assessed as change in lung at 300 mg/kg, po by hematoxylin and eosin staining based analysis; type: organism-based; conditions: in vivo
[38] = system: Mus musculus; assay: Decrease in MMP-2 level in BALB/c mouse xenografted with MDA-MB-231 cells in tumor tissue at 25 mg/kg, po by immunohistochemistry analysis; type: functional, organism-based
[39] = system: Mus musculus; assay: Decrease in E-cadherin level in BALB/c mouse xenografted with MDA-MB-231 cells in tumor tissue at 25 mg/kg, po by immunohistochemistry analysis; type: functional, organism-based
[40] = biological target: Vascular endothelial growth factor receptor 3 (Mus musculus) (UniProt P35917); assay: In vivo inhibition of VEGFR3 phosphorylation in BALB/c mouse xenografted with MDA-MB-231 cells at 25 mg/kg, po by immunohistochemistry analysis; type: functional, organism-based
[41] = biological target: Vascular endothelial growth factor receptor 3 (Mus musculus) (UniProt P35917); assay: In vivo inhibition of VEGFR3 phosphorylation in BALB/c mouse xenografted with MDA-MB-231 cells assessed as decrease in ERK1/2 phosphorylation at 25 mg/kg, po by immunohistochemistry analysis; type: functional, organism-based

T1 sequence (P35916 whole entry): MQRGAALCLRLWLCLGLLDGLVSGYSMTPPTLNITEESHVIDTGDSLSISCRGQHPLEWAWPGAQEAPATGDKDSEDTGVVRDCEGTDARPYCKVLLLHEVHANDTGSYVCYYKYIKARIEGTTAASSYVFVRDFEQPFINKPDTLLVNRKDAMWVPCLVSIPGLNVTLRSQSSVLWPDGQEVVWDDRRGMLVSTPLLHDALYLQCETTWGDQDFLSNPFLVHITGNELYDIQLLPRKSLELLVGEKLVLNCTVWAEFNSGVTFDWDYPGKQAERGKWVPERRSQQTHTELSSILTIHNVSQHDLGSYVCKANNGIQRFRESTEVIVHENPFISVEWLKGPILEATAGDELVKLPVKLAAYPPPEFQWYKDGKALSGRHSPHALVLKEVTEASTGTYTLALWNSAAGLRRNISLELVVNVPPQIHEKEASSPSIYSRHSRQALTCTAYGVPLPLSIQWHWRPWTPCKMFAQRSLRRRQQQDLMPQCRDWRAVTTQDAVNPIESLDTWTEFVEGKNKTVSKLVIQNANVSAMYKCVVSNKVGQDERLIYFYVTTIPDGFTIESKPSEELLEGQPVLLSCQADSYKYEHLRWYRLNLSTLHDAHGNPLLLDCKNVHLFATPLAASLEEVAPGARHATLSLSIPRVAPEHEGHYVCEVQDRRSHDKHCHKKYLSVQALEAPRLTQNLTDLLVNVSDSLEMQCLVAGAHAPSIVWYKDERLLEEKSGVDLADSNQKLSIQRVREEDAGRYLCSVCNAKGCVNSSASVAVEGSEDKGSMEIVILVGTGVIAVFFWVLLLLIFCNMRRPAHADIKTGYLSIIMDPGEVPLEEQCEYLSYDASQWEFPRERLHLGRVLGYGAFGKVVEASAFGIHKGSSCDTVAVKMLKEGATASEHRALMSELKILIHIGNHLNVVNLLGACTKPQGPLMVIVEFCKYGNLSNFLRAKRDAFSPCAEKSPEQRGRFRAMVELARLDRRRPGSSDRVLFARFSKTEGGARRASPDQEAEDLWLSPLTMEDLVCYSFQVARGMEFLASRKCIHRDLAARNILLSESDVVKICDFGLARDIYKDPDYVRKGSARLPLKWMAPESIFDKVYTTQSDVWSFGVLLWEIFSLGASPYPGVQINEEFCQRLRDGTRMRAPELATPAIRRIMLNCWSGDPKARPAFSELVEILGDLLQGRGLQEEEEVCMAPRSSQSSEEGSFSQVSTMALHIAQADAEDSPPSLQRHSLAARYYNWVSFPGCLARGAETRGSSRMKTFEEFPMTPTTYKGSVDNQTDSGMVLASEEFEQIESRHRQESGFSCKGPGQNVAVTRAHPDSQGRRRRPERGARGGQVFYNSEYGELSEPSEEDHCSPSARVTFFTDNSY
Sequence of Vascular endothelial growth factor receptor 3 (Mus musculus) (P35917 whole entry): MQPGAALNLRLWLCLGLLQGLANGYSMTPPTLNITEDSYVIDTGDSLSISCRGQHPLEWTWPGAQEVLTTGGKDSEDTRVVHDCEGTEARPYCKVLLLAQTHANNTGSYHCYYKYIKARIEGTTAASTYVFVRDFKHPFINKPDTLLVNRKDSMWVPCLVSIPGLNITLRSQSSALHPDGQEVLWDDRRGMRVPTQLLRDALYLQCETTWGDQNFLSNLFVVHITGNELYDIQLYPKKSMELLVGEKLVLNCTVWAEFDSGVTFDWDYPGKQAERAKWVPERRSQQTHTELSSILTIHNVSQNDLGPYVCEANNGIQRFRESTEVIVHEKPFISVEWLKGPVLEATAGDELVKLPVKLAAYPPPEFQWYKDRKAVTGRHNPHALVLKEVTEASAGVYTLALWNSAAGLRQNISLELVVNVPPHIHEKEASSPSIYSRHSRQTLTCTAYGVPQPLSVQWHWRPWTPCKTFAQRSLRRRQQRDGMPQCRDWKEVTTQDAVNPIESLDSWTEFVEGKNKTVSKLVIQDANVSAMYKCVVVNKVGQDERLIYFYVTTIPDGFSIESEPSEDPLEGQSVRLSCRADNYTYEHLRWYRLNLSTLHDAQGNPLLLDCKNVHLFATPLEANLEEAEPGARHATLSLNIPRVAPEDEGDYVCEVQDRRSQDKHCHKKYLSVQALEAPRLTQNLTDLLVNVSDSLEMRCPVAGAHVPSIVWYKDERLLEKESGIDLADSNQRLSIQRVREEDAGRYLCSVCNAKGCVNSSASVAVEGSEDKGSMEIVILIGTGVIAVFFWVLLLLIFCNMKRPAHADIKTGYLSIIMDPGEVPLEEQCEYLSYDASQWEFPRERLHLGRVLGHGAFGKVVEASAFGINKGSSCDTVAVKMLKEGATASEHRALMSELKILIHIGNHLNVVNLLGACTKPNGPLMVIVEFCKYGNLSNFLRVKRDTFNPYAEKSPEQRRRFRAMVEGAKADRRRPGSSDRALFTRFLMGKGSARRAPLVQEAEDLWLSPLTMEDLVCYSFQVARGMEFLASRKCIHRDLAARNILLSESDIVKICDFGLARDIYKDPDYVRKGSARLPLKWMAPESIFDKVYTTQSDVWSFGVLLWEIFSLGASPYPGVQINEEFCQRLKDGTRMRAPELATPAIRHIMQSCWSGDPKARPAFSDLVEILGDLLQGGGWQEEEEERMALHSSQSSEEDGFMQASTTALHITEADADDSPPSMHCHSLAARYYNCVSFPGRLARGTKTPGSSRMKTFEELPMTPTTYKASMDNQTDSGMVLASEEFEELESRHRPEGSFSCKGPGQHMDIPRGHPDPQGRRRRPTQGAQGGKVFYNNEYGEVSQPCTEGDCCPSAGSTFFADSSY
Sequence of Maternal embryonic leucine zipper kinase (Q14680 whole entry, looked up): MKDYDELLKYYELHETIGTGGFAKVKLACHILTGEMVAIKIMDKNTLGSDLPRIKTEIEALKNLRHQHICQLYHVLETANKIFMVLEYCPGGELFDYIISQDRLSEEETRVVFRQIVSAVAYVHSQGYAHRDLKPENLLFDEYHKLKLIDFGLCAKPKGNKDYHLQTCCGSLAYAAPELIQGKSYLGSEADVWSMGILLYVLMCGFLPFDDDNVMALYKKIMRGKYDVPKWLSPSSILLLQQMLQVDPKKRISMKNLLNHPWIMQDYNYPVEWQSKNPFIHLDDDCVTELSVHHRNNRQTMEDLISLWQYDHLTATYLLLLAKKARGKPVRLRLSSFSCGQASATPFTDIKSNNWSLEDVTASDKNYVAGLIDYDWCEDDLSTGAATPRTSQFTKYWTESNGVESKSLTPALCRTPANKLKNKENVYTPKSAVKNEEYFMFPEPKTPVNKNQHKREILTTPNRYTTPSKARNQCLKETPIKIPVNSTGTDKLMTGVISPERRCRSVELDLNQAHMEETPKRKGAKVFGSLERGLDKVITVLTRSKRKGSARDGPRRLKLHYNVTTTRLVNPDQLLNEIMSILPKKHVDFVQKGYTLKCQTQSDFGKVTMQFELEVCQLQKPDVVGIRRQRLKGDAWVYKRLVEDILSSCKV
Sequence of Misshapen-like kinase 1 (Q8N4C8 whole entry, looked up): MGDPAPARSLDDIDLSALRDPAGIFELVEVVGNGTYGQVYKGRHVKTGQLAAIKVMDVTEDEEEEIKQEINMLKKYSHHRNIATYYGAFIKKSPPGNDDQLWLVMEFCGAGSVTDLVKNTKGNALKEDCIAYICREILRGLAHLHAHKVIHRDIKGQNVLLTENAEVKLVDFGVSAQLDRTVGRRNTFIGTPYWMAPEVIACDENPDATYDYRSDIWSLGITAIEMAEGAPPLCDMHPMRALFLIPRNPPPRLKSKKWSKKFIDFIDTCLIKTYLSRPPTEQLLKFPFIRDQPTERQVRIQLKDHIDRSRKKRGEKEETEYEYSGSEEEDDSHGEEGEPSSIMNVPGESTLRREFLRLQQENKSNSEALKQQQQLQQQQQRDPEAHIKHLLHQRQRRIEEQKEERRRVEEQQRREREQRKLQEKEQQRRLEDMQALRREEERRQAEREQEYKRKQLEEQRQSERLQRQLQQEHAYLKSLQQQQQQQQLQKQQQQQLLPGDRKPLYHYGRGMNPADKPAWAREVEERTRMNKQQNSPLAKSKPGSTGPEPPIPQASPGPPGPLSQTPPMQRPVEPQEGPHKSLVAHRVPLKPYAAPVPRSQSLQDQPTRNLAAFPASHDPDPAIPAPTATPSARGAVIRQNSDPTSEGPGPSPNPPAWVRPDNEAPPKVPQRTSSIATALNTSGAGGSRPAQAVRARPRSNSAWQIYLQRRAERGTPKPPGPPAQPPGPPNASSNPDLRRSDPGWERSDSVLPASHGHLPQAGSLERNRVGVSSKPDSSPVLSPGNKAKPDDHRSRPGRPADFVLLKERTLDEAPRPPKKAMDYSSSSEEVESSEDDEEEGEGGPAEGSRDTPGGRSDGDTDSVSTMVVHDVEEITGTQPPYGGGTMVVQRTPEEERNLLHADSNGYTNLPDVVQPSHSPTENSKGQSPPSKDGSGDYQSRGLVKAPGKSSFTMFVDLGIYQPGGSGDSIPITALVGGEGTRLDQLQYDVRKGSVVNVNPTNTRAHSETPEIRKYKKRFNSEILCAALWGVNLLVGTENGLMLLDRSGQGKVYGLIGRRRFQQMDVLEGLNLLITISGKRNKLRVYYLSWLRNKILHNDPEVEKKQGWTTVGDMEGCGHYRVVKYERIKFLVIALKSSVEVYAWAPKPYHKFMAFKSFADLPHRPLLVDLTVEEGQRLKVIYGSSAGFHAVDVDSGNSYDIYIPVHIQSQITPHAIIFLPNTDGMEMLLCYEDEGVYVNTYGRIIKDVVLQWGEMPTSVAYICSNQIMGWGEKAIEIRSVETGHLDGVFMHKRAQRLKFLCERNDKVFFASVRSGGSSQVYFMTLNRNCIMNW

With `CN1CCN(c2ccc(-c3cc4c(N5CCN(C(=O)Nc6ccc(Cl)c(C(F)(F)F)c6)CC5)ncnc4s3)cc2)CC1` the Activity [1] was “Active”, the Activity [2] was “Non-Toxic” and the Activity [3] was “Non-Toxic”. The Activity [4] was “Active”, the IC50 [5] was 3500 nM and the Activity [6] was 5%. For the same compound, the Activity [7] was 17%, the IC50 [8] was 110 nM and the IC50 [9] was over 10000 nM. For the same compound, the IC50 [10] was 250 nM, the IC50 [11] was 680 nM and the Activity [12] was “Active”. For the same compound, the inhibition [13] was “Dose-Dependent Effect”, the inhibition [14] was “Dose-Dependent Effect” and the inhibition at 2.5 µM [15] was 100%. For the same compound, the Activity [16] was 30.5%, the Activity [17] was 36.7% and the Activity [18] was “Active”. The Activity [19] was “Active”, the Activity [20] was “Active” and the Activity [21] was “Active”. The Activity [22] was “Active”, the inhibition [23] was “Active” and the inhibition [24] was “Active”. The inhibition [25] was “Active”, the inhibition [26] was “Active” and the inhibition [27] was “Active”. It also gave a half-life [28] of 13.1 h, a Cmax [29] of 420 ng/mL and an AUC(0-t) [30] of 9220 ng·h/mL. The AUC(0-inf) [31] was 3480 ng·h/mL, the Vd [32] was 5.4 L/kg and the clearance [33] was 4.8 mL/min/kg. The bioavailability [34] was 30.9%, the Activity [35] was “Non-Toxic” and the Activity [36] was “Non-Toxic”. The Activity [37] was “Non-Toxic”, the Activity [38] was “Active” and the Activity [39] was “Active”. For the same compound, the Activity [40] was “Active” and the Activity [41] was “Active”.

From ChEMBL document CHEMBL4837240 (J Med Chem, 2021)
